# In PubChem BioAssay AID2060620 (Molecular Pharmacology Branch, DTP, NCI, 2025):
# Test system: 328373-195-R-J1-PDC complex spheroids, viability % test/control
# Assay: Anticancer human tumor 328373-195-R-J1-PDC patient-derived head and neck squamous carcinoma cell line growth inhibition [CLK]
# Details: for IC50: curve of first compound; for viability, T/C: stronger effect = lower value
# Text: A high-throughput screen of multi-cell type tumor spheroids was designed to identify active combinations of […] and targeted small molecules. Complex spheroids include a stromal component modeled by human endothelial cells (HUVEC) and fibroblasts modeled by human mesenchymal stem cells (MSCs). The concentration ranges selected for each drug and investigational agent were based upon clinically achievable concentrations if the clinical Cmax of the agent was known.
# Compounds. The drugs and investigational agents: cirtuvivint (SM08502; NSC835563), CC-671 (NSC850746), vemurafenib (NSC761431), tapotoclax (NSC804041), sotorasib (NSC818433), adagrasib (NSC831453), MRTX-1133 (NSC836407), BAY2416964 (NSC825713), copanlisib (NSC816437), inavolisib (NSC800729), abemaciclib (NSC768073), osimertinib (NSC779217), entinostat (NSC756642), eltanexor (KPT-8602, NSC794443), venetoclax (NSC766270), ceralasertib (NSC777638), bortezomib (NSC756655), olaparib (NSC753686), talazoparib (NSC767125), alisertib (NSC759677), peposertib (NSC802822), gemcitabine (NSC613327), 5-fluorouracil (NSC19893), SN-38 (NSC673596), oxaliplatin (NSC266046), paclitaxel (NSC125973), and doxorubicin (NSC123127), were obtained from the National Cancer Institute (NCI) Developmental Therapeutics Program Chemical Repository. The FDA-approved anticancer drug set is available from the Developmental Therapeutics Program at https://dtp.cancer.gov/organization/dscb/obtaining/available plates.htm. […] The stock solutions were prepared in dimethyl sulfoxide (DMSO, Sigma-Aldrich, St. Louis, MO, cat. D2650), except for the platinum complexes which were prepared in saline (Quality Biological, Gaithersburg, MD, cat. 114-055-101), at 800-fold the tested concentration and stored at -70 degrees C prior to their use. All drugs and investigational agents were tested over a range starting from a high concentration at or near the clinical Cmax and decreasing in half-log increments. If the clinical Cmax for an agent had not been determined, the highest concentration tested was 10 microM.
# Cell Culture. All cells were maintained in an incubator at 37 degrees C and 5% CO2 with 95% humidity. The PDC lines were cultured according to standard operating procedures established by the NCI PDMR. Briefly, all PDCs were thawed and cultured in Matrigel-coated flasks prepared with a working solution of 1X Ham's F-12 nutrient mix, without supplementation (Invitrogen, Waltham, MA, cat. 11765054), 100 U/mL penicillin-streptomycin (Invitrogen, cat. 15140122), and 2.5% Matrigel (Corning Inc., Corning, NY, cat. 354248) for the first three passages. The 947758-054-R-J2-PDC line was cultured in 6B/Colon 1A media, which includes advanced DMEM/F-12 (Thermo Fisher Scientific, cat. 12634028), 10 mM HEPES (Thermo Fisher Scientific, cat. 15630080), 1X GlutaMAX supplement (Thermo Fisher Scientific, cat. 35050061), 0.1 mg/mL primocin (InvivoGen, cat. ant-pm-2), 10% defined fetal bovine serum, heat inactivated (HyClone Laboratories Inc., cat. SH30070.03HI), 1.25 mM N-Acetyl-L-cysteine (Sigma-Aldrich, cat. A9165), 10 mM nicotinamide (Sigma-Aldrich, cat. N0636), 1X B-27 supplement (Thermo Fisher Scientific, cat. 17504044), 1X N-2 supplement (Thermo Fisher Scientific, cat. 17502048), and 10 microM Y-27632 dihydrochloride (Tocris Bioscience, cat. 1254). The 876862-298-R-J1-PDC was cultured in 6E media, which includes all 6B/Colon 1A media components plus 50% L-WRN conditioned media (ATCC, cat. CRL-3276), 50 ng/mL recombinant human EGF recombinant protein (hEGF; Thermo Fisher Scientific, cat. PHG0311), 10 ng/mL recombinant human fibroblast growth factor 10 (hGFG-10; PeproTech, cat. 100-26), 1 ng/mL recombinant human fibroblast growth factor 2 (hFGF-2; PeproTech, cat. 100-18B), and 1 µM prostaglandin E2 (PGE2; Tocris, cat. 2296). The 227483-062-R1-J1-PDC line was cultured in Panc media, containing all 6E components except hFGF-2, with the addition of 500 nM SB-431542 (Selleckchem, cat. S1067) and 10 nM gastrin (Tocris, cat. 3006). […]
# [1] = second compound 0.0316 µM, first compound 0.0316 µM
# [2] = second compound 0.0316 µM, first compound 0.1 µM
# [3] = second compound 0.0316 µM, first compound 0.316 µM
# [4] = second compound 0.0316 µM, first compound 1 µM
# [5] = second compound 0.0316 µM, first compound 3.16 µM
# [6] = second compound 0.0316 µM, first compound 10 µM
# [7] = second compound 0.1 µM, first compound 0.0316 µM
# [8] = second compound 0.1 µM, first compound 0.1 µM
# [9] = second compound 0.1 µM, first compound 0.316 µM
# [10] = second compound 0.1 µM, first compound 1 µM
# [11] = second compound 0.1 µM, first compound 3.16 µM
# [12] = second compound 0.1 µM, first compound 10 µM
# [13] = second compound 0.316 µM, first compound 0.0316 µM
# [14] = second compound 0.316 µM, first compound 0.1 µM
# [15] = second compound 0.316 µM, first compound 0.316 µM
# [16] = second compound 0.316 µM, first compound 1 µM
# [17] = second compound 0.316 µM, first compound 3.16 µM
# [18] = second compound 0.316 µM, first compound 10 µM
# [19] = second compound 1 µM, first compound 0.0316 µM
# [20] = second compound 1 µM, first compound 0.1 µM
# [21] = second compound 1 µM, first compound 0.316 µM
# [22] = second compound 1 µM, first compound 1 µM
# [23] = second compound 1 µM, first compound 3.16 µM
# [24] = second compound 1 µM, first compound 10 µM
# [25] = second compound 3.16 µM, first compound 0.0316 µM
# [26] = second compound 3.16 µM, first compound 0.1 µM
# [27] = second compound 3.16 µM, first compound 0.316 µM
# [28] = second compound 3.16 µM, first compound 1 µM
# [29] = second compound 3.16 µM, first compound 3.16 µM
# [30] = second compound 3.16 µM, first compound 10 µM
# [31] = second compound 10 µM, first compound 0.0316 µM
# [32] = second compound 10 µM, first compound 0.1 µM
# [33] = second compound 10 µM, first compound 0.316 µM
# [34] = second compound 10 µM, first compound 1 µM
# [35] = second compound 10 µM, first compound 3.16 µM
# [36] = second compound 10 µM, first compound 10 µM
# 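Also: spheroids exposed to the agents for 7 days.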
smiles,measurement,setting,value
C#Cc1c(F)ccc2cc(O)cc(-c3ncc4c(N5CC6CCC(C5)N6)nc(OCC56CCCN5CC(F)C6)nc4c3F)c12 (centres undefined) + CN1CCN(c2cc(C(=O)Nc3cc4cc(-c5cnn(C)c5)ccc4cn3)ccn2)CC1,IC50,second compound 0.0316 µM,> 10000 nM
same,IC50,second compound 0.1 µM,> 10000 nM
same,IC50,second compound 0.316 µM,< 31.6 nM
same,IC50,second compound 1 µM,< 31.6 nM
same,IC50,second compound 3.16 µM,< 31.6 nM
same,IC50,second compound 10 µM,< 31.6 nM
same,"viability, T/C",[1],92.8%
same,"viability, T/C",[2],88%
same,"viability, T/C",[3],109%
same,"viability, T/C",[4],93.9%
same,"viability, T/C",[5],103%
same,"viability, T/C",[6],81.5%
same,"viability, T/C",[7],80.8%
same,"viability, T/C",[8],85.2%
same,"viability, T/C",[9],80.1%
same,"viability, T/C",[10],83.2%
same,"viability, T/C",[11],88.8%
same,"viability, T/C",[12],62.4%
same,"viability, T/C",[13],34%
same,"viability, T/C",[14],34.8%
same,"viability, T/C",[15],30.9%
same,"viability, T/C",[16],39.2%
same,"viability, T/C",[17],32.8%
same,"viability, T/C",[18],16.9%
same,"viability, T/C",[19],0.24%
same,"viability, T/C",[20],0.32%
same,"viability, T/C",[21],1.75%
same,"viability, T/C",[22],0.29%
same,"viability, T/C",[23],0.2%
same,"viability, T/C",[24],2.89%
same,"viability, T/C",[25],0.63%
same,"viability, T/C",[26],2.27%
same,"viability, T/C",[27],3.6%
same,"viability, T/C",[28],0.18%
same,"viability, T/C",[29],0.13%
same,"viability, T/C",[30],0.34%
same,"viability, T/C",[31],1.89%
same,"viability, T/C",[32],0.19%
same,"viability, T/C",[33],0.24%
same,"viability, T/C",[34],0.19%
same,"viability, T/C",[35],0.19%
same,"viability, T/C",[36],1.27%
C=C(F)C(=O)N1CCN(c2nc(OCC3CCCN3C)nc3c2CCN(c2cccc4cccc(Cl)c24)C3)CC1CC#N (centres undefined) + CN1CCN(c2cc(C(=O)Nc3cc4cc(-c5cnn(C)c5)ccc4cn3)ccn2)CC1,IC50,second compound 0.0316 µM,4080 nM
same,IC50,second compound 0.1 µM,3570 nM
same,IC50,second compound 0.316 µM,< 31.6 nM
same,IC50,second compound 1 µM,< 31.6 nM
same,IC50,second compound 3.16 µM,< 31.6 nM
same,IC50,second compound 10 µM,< 31.6 nM
same,"viability, T/C",[1],103%
same,"viability, T/C",[2],99.5%
same,"viability, T/C",[3],96.9%
same,"viability, T/C",[4],91.5%
same,"viability, T/C",[5],63%
same,"viability, T/C",[6],3.75%
same,"viability, T/C",[7],80.5%
same,"viability, T/C",[8],90.8%
same,"viability, T/C",[9],81.7%
same,"viability, T/C",[10],81.6%
same,"viability, T/C",[11],55.7%
same,"viability, T/C",[12],1.67%
same,"viability, T/C",[13],35.2%
same,"viability, T/C",[14],38.1%
same,"viability, T/C",[15],34.7%
same,"viability, T/C",[16],34.3%
same,"viability, T/C",[17],22.8%
same,"viability, T/C",[18],3.9%
same,"viability, T/C",[19],0.25%
same,"viability, T/C",[20],4.59%
same,"viability, T/C",[21],1.43%
same,"viability, T/C",[22],0.34%
same,"viability, T/C",[23],1.34%
same,"viability, T/C",[24],0.52%
same,"viability, T/C",[25],2.92%
same,"viability, T/C",[26],0.86%
same,"viability, T/C",[27],1.39%
same,"viability, T/C",[28],1.82%
same,"viability, T/C",[29],5.78%
same,"viability, T/C",[30],0.76%
same,"viability, T/C",[31],4.95%
same,"viability, T/C",[32],2.58%
same,"viability, T/C",[33],0.33%
same,"viability, T/C",[34],0.79%
same,"viability, T/C",[35],1.9%
same,"viability, T/C",[36],0.96%
